Legend:
Assay type in all cases: in vivo, rat
[1] = tested on: TNF-α; assay: CIA rats, serum TNF-α ELISA; details: for TNF-α: serum
Procedure: The presence of catabolic cytokines IL-1β, TNF-α, or IL-6 was measured using Rat IL-1, TNF-α, and IL-6 Quantikine ELISA kit from R and D Systems (product #: RLB00 for IL-1β, RTA00 for TNF-α, and R6000B for IL-6) as follows: diluted serum was added to a microplate coated with polyclonal IL-1, TNF-α, or IL-6 antibody and allowed to bind for 2 h at room temperature. The microplate was washed thoroughly to remove unbound serum and then a polyclonal enzyme-conjugated IL-1β, TNF-α, or IL-6 antibody was added and allowed to bind for 2 h at room temperature. Washing was repeated, enzyme substrate was added, and the plate was developed for 30 min at room temperature. After the addition of stop solution, the absorbance was read at 450 nm, multiplied by dilution factor, and the concentration of IL-1β/TNF-α/IL-6 calculated based on the absorbance readings of an IL-1β/TNF-α/TL-6 standard curve.
The presence of catabolic cytokines IL-6/TNF-α was measured using the Rat IL-6/TNF-α Quantikine ELISA kit from RandD Systems as follows: undiluted serum was added to a microplate coated with polyclonal IL-6/TNF-α antibody and allowed to bind for 2 hours at room temperature. The microplate was washed thoroughly to remove unbound serum, and then a polyclonal enzyme-conjugated IL-6/TNF-α antibody was added and allowed to bind for 2 hours at room temperature. Washing was repeated, enzyme substrate was added, and the plate was developed for 30 minutes at room temperature. After the addition of stop solution, the absorbance was read at 450 nm and the concentration of IL-6/TNF-α calculated based on the absorbance readings of an IL-6/TNF-α standard curve.

[2] = tested on: uCTX-II; assay: CIA rats, urinary CTX-II ELISA normalized to creatinine
Procedure: The presence of the cartilage degradation biomarker uCTX-II was measured using the Rat CTX-II ELISA kit from Mybiosource (product #: MBS2880519) as follows: diluted urine was added to a microplate coated with CTX-II antibody and allowed to bind for 2 h at 37° C. […] The microplate was washed thoroughly to remove unbound urine and antibody before an enzyme-conjugated avidin antibody was added to bind to the biotin-conjugated antibody for specific detection. The avidin antibody was allowed to bind for 1 h at 37° C. Washing was repeated, enzyme substrate was added, and the plate was developed for 30 min at 37° C. After the addition of stop solution, the absorbance was read at 450 nm, multiplied by dilution factor, and the concentration of CTX-II calculated based on the absorbance readings of a CTX-II standard curve. CTX-II amount was normalized to the amount of Creatinine in the urine using the Creatinine Parameter Assay Kit from R and D Systems (product #: […] Absorbance was read at 492 nm and Creatinine amount in urine was calculated based on the absorbance readings of a Creatinine standard curve.

[3] = tested on: CIA rats; assay: CIA rats, compression-induced pain (Randall-Salitto)
Procedure: Clinical findings such as arthritis severity index, paw thickness, ankle diameter (using Digital Absolute, Model #PK-0505CPX, Mitutoyo Corporation, Kawasaki, Japan), and pain sensitivity (using Randall Salitto, IITC Life Science Inc., Woodland Hills, Calif., USA) were monitored during the course of study. Urine was collected from overnight fasted rats using metabolic cages after three weeks of treatment post-model induction. At Necropsy, serum from the cardiac and synovial lavage (100 μL of saline was injected into the articular cavity and aspirated back to the syringe) for biomarkers and ankle joint for histopathology were collected from each animal.
(§1) Response to pressure as a measure of pain sensitivity was assessed using the Randall-Salitto probe attached to an electronic monitor on priming day, boost day, and days 12, 14, 16, 19, and 21. Both the left and right hind legs were monitored on those days and their average was used for data analysis. Changes from the vehicle-treated CIA rats have been reported as pain tolerance on those days.
as §1, with “measured” for “assessed”, “18” for “19,”, “20.” for “21.”, “averages were” for “average was”, “days. […] This reduction in pain sensitivity was statistically significant at all time points as of day-12 for both groups when compared to vehicle-treated CIA rats (Table 43).” for “days.”

[4] = AMK CIA study, MTX 75 μg/kg, AMK 200 mg/kg oral

## CN(Cc1cnc2nc(N)nc(N)c2n1)c1ccc(C(=O)N[C@@H](CCC(=O)O)C(=O)O)cc1 [Methotrexate]
[1]; [4]
  serum TNF-α inhibition compared to diseased control: 86.2%
[1]; AP CIA study, Methotrexate 0.5 mg/kg, AP 200 mg/kg oral
  serum TNF-α level vs vehicle-treated CIA: significantly reduced
[1]; AMK study, AMK (200 mg/kg)
  TNF-α: 0.37 ± 1.12 pg/mL
[1]; AP study, MTX (0.5 mg/mL), AP (200 mg/kg) oral 3 weeks
  TNF-α: 10.2 ± 0.37 pg/mL
[2]; [4]
  inhibition of urine CTX-II (cartilage degradation) vs vehicle-treated CIA: 26.4%
[2]; urine, CIA rats, MTX 75 μg/mL (printed), AMK 200 mg/kg
  CTX-II: 2500.8 ± 355.9 ng/g creatinine
[3]; AP CIA study, Methotrexate 0.5 mg/kg, day 20
  pain tolerance improvement vs vehicle-treated CIA: 69.4%
[3]; AP CIA study, days 12-20
  range of reduction in pain sensitivity vs vehicle treated CIA rats: 8.39-69.4%
[3]; Boost, MTX 0.5 mg/kg, AP 200 mg/kg
  Compression pain resistance vs CIA + vehicle (Mean ± SD): −1.50%
[3]; Day 12, MTX 0.5 mg/kg, AP 200 mg/kg
  Compression pain resistance vs CIA + vehicle (Mean ± SD): 8.39%
[3]; Day 14, MTX 0.5 mg/kg, AP 200 mg/kg
  Compression pain resistance vs CIA + vehicle (Mean ± SD): 27.30%
[3]; Day 16, MTX 0.5 mg/kg, AP 200 mg/kg
  Compression pain resistance vs CIA + vehicle (Mean ± SD): 54.31%
[3]; Day 18, MTX 0.5 mg/kg, AP 200 mg/kg
  Compression pain resistance vs CIA + vehicle (Mean ± SD): 64.13%
[3]; Day 20, MTX 0.5 mg/kg, AP 200 mg/kg
  Compression pain resistance vs CIA + vehicle (Mean ± SD): 69.35%
[3]; MTX 75 μg/kg, AMK 200 mg/kg oral, Boost
  Compression pain resistance vs CIA + vehicle (Mean ± SD): 0.27 ± 2.16%
[3]; MTX 75 μg/kg, AMK 200 mg/kg oral, Day 12
  Compression pain resistance vs CIA + vehicle (Mean ± SD): 6.8%
[3]; MTX 75 μg/kg, AMK 200 mg/kg oral, Day 12, listed as MTX
  Compression pain resistance vs CIA + vehicle (Mean ± SD): 6.75 ± 4.56 %
[3]; MTX 75 μg/kg, AMK 200 mg/kg oral, Day 14
  Compression pain resistance vs CIA + vehicle (Mean ± SD): 13.5%
[3]; MTX 75 μg/kg, AMK 200 mg/kg oral, Day 14, listed as MTX
  Compression pain resistance vs CIA + vehicle (Mean ± SD): 13.48 ± 15.98%
[3]; MTX 75 μg/kg, AMK 200 mg/kg oral, Day 16
  Compression pain resistance vs CIA + vehicle (Mean ± SD): 28.2%
[3]; MTX 75 μg/kg, AMK 200 mg/kg oral, Day 16, listed as MTX
  Compression pain resistance vs CIA + vehicle (Mean ± SD): 28.18 ± 12.53 %
[3]; MTX 75 μg/kg, AMK 200 mg/kg oral, Day 19
  Compression pain resistance vs CIA + vehicle (Mean ± SD): 40.8%
[3]; MTX 75 μg/kg, AMK 200 mg/kg oral, Day 19, listed as MTX
  Compression pain resistance vs CIA + vehicle (Mean ± SD): 40.77%
[3]; MTX 75 μg/kg, AMK 200 mg/kg oral, Day 21
  Compression pain resistance vs CIA + vehicle (Mean ± SD): 43.9%
[3]; MTX 75 μg/kg, AMK 200 mg/kg oral, Day 21, listed as MTX
  Compression pain resistance vs CIA + vehicle (Mean ± SD): 43.88 ± 5.97^¥ %
[3]; MTX 75 μg/kg, AMK 200 mg/kg oral, Prime
  Compression pain resistance vs CIA + vehicle (Mean ± SD): −0.12 ± 1.39%
[3]; Prime, MTX 0.5 mg/kg, AP 200 mg/kg
  Compression pain resistance vs CIA + vehicle (Mean ± SD): −1.20%
